# Data published in US20180125993A1 (BEIJING COTIMES BIOTECH COMPANY LIMITED, priority 2014, published 2018).
# Marks after values point to notes of the source that are not given here.
# T1: OPG-His (recombinant human osteroprotegerin/TNFRSF11B, Wuxi Pharmatech) (human, UniProt O00300 22-401, limits assumed)
# T1 construct: Commercial protein; also called osteoprotegerin; not shown: His tag
# T1 sequence (looked up): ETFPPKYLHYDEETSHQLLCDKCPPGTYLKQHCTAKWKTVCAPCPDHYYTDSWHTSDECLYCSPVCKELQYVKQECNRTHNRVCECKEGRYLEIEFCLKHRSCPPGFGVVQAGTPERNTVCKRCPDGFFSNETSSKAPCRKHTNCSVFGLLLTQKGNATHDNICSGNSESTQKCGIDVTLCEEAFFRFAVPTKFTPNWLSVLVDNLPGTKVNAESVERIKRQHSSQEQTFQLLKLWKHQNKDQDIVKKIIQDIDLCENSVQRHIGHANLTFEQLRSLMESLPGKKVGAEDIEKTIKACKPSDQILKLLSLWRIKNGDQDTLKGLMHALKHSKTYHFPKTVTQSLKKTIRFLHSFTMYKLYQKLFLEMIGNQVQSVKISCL
# T2: DcR2-His (recombinant human TRAIL R4/TNFRSF10D, Sino Biological) (human, UniProt Q9UBN6 56-211, limits assumed)
# T2 construct: Commercial protein; not shown: His tag
# T2 sequence (looked up): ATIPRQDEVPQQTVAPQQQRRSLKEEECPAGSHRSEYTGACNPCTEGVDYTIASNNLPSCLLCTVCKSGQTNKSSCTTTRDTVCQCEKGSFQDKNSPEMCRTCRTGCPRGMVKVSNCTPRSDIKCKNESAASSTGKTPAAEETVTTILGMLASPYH
# T3: DcR1-His (recombinant human TRAIL R3/TNFRSF10C, Novoprotein Science) (human, UniProt O14798 26-221, limits assumed)
# T3 construct: Commercial protein; not shown: His tag
# T3 sequence (looked up): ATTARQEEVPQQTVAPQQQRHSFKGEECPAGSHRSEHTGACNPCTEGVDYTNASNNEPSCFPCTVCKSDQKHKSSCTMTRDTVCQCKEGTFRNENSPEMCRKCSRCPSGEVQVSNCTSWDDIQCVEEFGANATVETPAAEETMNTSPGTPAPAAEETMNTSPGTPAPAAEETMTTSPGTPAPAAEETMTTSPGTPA
# T4: DR4-His-EC (Lot: 090222-P, E coli.) (human, UniProt O00220 24-239, limits assumed)
# T4 construct: it may mean extracellular or E. coli; also called TRAIL-R1; not shown: His tag
# T4 sequence (looked up): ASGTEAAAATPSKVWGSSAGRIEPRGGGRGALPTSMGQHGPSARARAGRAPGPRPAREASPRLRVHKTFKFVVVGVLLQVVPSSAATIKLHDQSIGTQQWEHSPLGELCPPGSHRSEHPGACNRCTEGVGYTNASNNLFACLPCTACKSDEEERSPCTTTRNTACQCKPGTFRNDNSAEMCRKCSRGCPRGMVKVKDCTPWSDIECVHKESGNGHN
# Key:
# lung cancer, CS225, 1# = experiment: Patients primary tumor tissue subcutaneous model (Day 37 after treatment); assay type: in vivo, nude mice; settings: cisplatin 5 mg/kg i.p. QW × 2w
# Text: (§1) Fresh primary tumor tissues from patients were implanted in NOD/SCID mice's flank, which developed into a primary tumor, which was then transferred to the nude mice's flank to allow the tumor reaching an exponential growth phase, and the tumor was named 1# tumor, and so on. When the tumor volume and number reached passage requirements, they were implanted into the right flank of nude mice. When the tumors' average volumes reached 100-200 mm^3, the mice were grouped.
# (§2) The bodyweight and major/minor axis of mice were measured twice a week, and Tumor Growth Inhibition (TGI) and tumor volume were calculated same as in 5.1.5. In addition, to evaluate the synergetic effect of drug combination in tumor growth, Jin Zhengjun Q value judgment method was used with the follow formula: Q=Ea+b/(Ea+Eb−Ea×Eb). Ea+b is the inhibition ratio of drug combination, Ea and Eb are the inhibition ratio of each of drug treatment when it is administered alone. […] The animals were monitored, and when the experiments were concluded, mice were sacrificed and tumors were extracted and weighted. All the animal experiments confer to the regulations of animal's welfare and the management of experimental animal usage.
# (§3) Tumor volumes were represented with average±standard error. Data analysis was done using Spss16.0, One-Way ANOVA, LSD (homogeneity of variance) or Dunnett T3 (non-homogeneity of variance). […] P<0.05 represents significant difference.
# Colo205 = experiment: Human colon cancer Colo205 subcutaneous model (Day 28 after treatment); assay type: in vivo, nude mice
# Experimental: (§4) Tumor cells (i.e., MIA-PaCa-2, WiDr, H2122, colo205) were inoculated in nude mice's flank at 5×10^6 cells per mouse. The mice were grouped when the average volume of tumors reached about 100˜200 mm^3. “QW”=weekly dose. “Q3d”=dosed every third day. “BiW”=biweekly.
# (§5) The bodyweight and major/minor axis of the mice were measured twice a week, and the tumor volumes were calculated using the formula: Tumor volume=1/2×major axis[…]. […] “T” represents average tumor volume of the experimental group (cm^3), and “C” represents average tumor volume of the control group (cm^3). The animals were monitored at all times. The bodyweight and major/minor axis or mice were measured twice a week.
# (§6) Tumor volumes were represented with average±standard error. […] P<0.05 represents significant difference.
# WiDr = experiment: Human colon cancer Widr subcutaneous model (Day 27 after treatment); assay type: in vivo, nude mice
# Experimental: as §4, §5, §6
# colon cancer, CS182, 5# = experiment: Patients primary tumor tissue subcutaneous model (Day 27 after treatment); assay type: in vivo, nude mice; settings: Irinotecan 50 mg/kg i.v. BiW × 6 times
# Text: as §1, §2, §3
# colon cancer, CS263, 1# = experiment: Patients primary tumor tissue subcutaneous model (Day 35 after treatment); assay type: in vivo, nude mice
# Text: as §1, §2, §3
# H2122 = experiment: Human lung cancer H2122 subcutaneous model (Day 38 after treatment); settings: for Tumor regression: treatment groups
# Experimental: (§7) The bodyweight and major/minor axis of the mice were measured twice a week, and the tumor volumes were calculated using the formula: Tumor volume=1/2×major axis×minor axis. […] “T” represents average tumor volume of the experimental group (cm^3), and “C” represents average tumor volume of the control group (cm^3). The animals were monitored at all times. The bodyweight and major/minor axis or mice were measured twice a week. When the experiments were concluded, mice were sacrificed and tumors were extracted and weighted.
# MIA-PaCa-2 = experiment: Human pancreatic cancer MIA-PaCa-2 subcutaneous model (34 days of treatment); settings: for Tumor regression: treatment groups
# Experimental: as §7
# colon cancer, CS146, 2# = experiment: Patients primary tumor tissue subcutaneous model (Day 30 after treatment); assay type: in vivo, nude mice; settings: 5-Fu 50 mg/kg i.p. QW × 6w alone
# Text: as §1, §2
# Tumor volumes were represented with average±standard error. Data analysis was done using Spss16.0, One-Way ANOVA, LSD (homogeneity of variance) or Dunnett T3 (non-homogeneity of variance). […]
# [1] = molecular target: T1, OPG-His (recombinant human …); experiment: CLEIA, antigen coated on microplate, HRP secondary antibody
# [2] = molecular target: T2, DcR2-His (recombinant human TRAIL …); experiment: as above
# [3] = molecular target: T3, DcR1-His (recombinant human TRAIL …); experiment: as above
# [4] = molecular target: T4, DR4-His-EC (Lot: 090222-P, E coli.); experiment: as above
# [5] = Irinotecan 50 mg/kg i.v. BiW × 6 times
# [6] = repeated experiment, Irinotecan group
# [7] = repeated experiment, Taxol group
# [8] = Gemcitabine 60 mg/kg i.p. Q3d × 6W
# [9] = Gemcitabine 60 mg/kg i.p. Q3d × 6W, listed as gemcitabine
# [10] = repeated experiment, gemcitabine group
molecule,measurement,setting,value
"N.N.[Cl][Pt][Cl] [Cisplatin, cisplatin, reference compound]",T/C % (Calculated using tumor volumes),"lung cancer, CS225, 1#",72.14%
same,TGI (Calculated using tumor volumes),"lung cancer, CS225, 1#",31.45%
same,TGI (Calculated using tumor weight),"lung cancer, CS225, 1#",32.66%
same,Time of tumor volume changed significantly,"lung cancer, CS225, 1#",7
same,Tumor Volume Mean ± SEM,"lung cancer, CS225, 1#",0.73 ± 0.06 cm^3
same,Tumor weight Mean ± SEM,"lung cancer, CS225, 1#",0.48 ± 0.08 g
same,TGI (Calculated using tumor volumes),"lung cancer, CS225, 1#; listed as cisplatin",31.45%
same,TGI (Calculated using tumor weight),"lung cancer, CS225, 1#; listed as cisplatin",32.66%
"CCc1c2c(nc3ccc(OC(=O)N4CCC(N5CCCCC5)CC4)cc13)-c1cc3c(c(=O)n1C2)COC(=O)[C@]3(O)CC [Irinotecan, reference compound]",Tumor weight Mean ± SEM,Colo205; [5],0.11 ± 0.02 g
same,Tumor regression,"Colo205; first experiment, treatment groups",none was found
same,TGI calculated using the tumor weights,Colo205; [6],93.76%
same,Tumor weight Mean ± SEM,WiDr; [5],0.26 ± 0.04 g
same,TGI (Calculated using tumor weight),WiDr; [6],72.30%
same,TGI (Calculated using tumor weight),"colon cancer, CS182, 5#",93.46%*
same,Tumor weight Mean ± SEM,"colon cancer, CS182, 5#",0.04 ± 0.00 g
same,TGI (Calculated using tumor weight),"colon cancer, CS182, 5#; listed as irinotecan",93.46%
same,TGI (Calculated using tumor weight),"colon cancer, CS263, 1#; [5]",99.58%*
same,Tumor weight Mean ± SEM,"colon cancer, CS263, 1#; [5]",0.003 ± 0.002 g
same,TGI (Calculated using tumor weight),"colon cancer, CS263, 1#; Irinotecan 50 mg/kg i.v. BiW × 6 times, listed as irinotecan",99.58%
same,Animals showing tumor regression,"colon cancer, CS263, 1#; combination: Day 24 and Day 31, irinotecan: Day 35",one animal
"CC(=O)O[C@H]1C(=O)[C@@]2(C)[C@H]([C@H](OC(=O)c3ccccc3)[C@]3(O)C[C@H](OC(=O)[C@H](O)[C@@H](NC(=O)c4ccccc4)c4ccccc4)C(C)=C1C3(C)C)[C@]1(OC(C)=O)CO[C@@H]1C[C@@H]2O [Taxol, reference compound]",T/C % (Calculated using tumor volumes),H2122; Taxol 24 mg/kg i.p. Q6d × 6W,55.33%
same,TGI (Calculated using tumor weight),H2122; Taxol 24 mg/kg i.p. Q6d × 6W,47.18%
same,Time of tumor volume changed significantly,H2122; Taxol 24 mg/kg i.p. Q6d × 6W,11
same,Tumor Volume Mean ± SEM,H2122; Taxol 24 mg/kg i.p. Q6d × 6W,1.08 ± 0.12 cm^3
same,Tumor weight Mean ± SEM,H2122; Taxol 24 mg/kg i.p. Q6d × 6W,0.87 ± 0.12 g
same,Bodyweights,"H2122; Taxol group, HuCTB006 0.2 mg/kg group","decreased, but were maintained at an acceptable level"
same,Tumor regression,H2122; first experiment,none was observed
same,Tumor regression,H2122; repeated experiment,none was observed
same,TGI (Calculated using tumor volume),H2122; [7],54.28%
same,TGI (Calculated using tumor weight),H2122; [7],50.44%
"Nc1ccn([C@@H]2O[C@H](CO)[C@@H](O)C2(F)F)c(=O)n1 [Gemcitabine, reference compound]",TGI (Calculated using tumor volumes),MIA-PaCa-2; [8],52.60%**
same,TGI (Calculated using tumor weight),MIA-PaCa-2; [8],55.66%*
same,Time of tumor volume changed significantly,MIA-PaCa-2; [8],10 days after first treatment
same,Tumor Volume Mean ± SEM,MIA-PaCa-2; [8],1.60 ± 0.11 cm^3
same,Tumor weight Mean ± SEM,MIA-PaCa-2; [8],0.84 ± 0.07 g
same,TGI (Calculated using tumor volumes),MIA-PaCa-2; [9],52.60%
same,TGI (Calculated using tumor weight),MIA-PaCa-2; [9],55.66%
same,Tumor regression,MIA-PaCa-2; first experiment,not found in the chemotherapy group
same,Tumor regression,MIA-PaCa-2; repeated experiment,not found in the chemotherapy group alone
same,TGI calculated based on the tumor volume,MIA-PaCa-2; [10],34.33%
same,TGI calculated based on the tumor weight,MIA-PaCa-2; [10],31.30%
same,Bodyweights of mice,MIA-PaCa-2; treatment groups over the time,decreased significantly by the third dosing
"O=c1[nH]cc(F)c(=O)[nH]1 [5-Fu, 5-fluorouracil, reference compound]",TGI (calculated using the tumor volumes of Day 30),"colon cancer, CS146, 2#",37.95%
"HuCTB006, human chimeric anti-TRAIL-R2 (DR5) monoclonal antibody (antibody, human IgG1, V domains shown, also called human CTB006) VH: EVQLQQSGPELVKPGASVRMSCKASGYTFTSYFIHWVKQRPGQGLEWIGWIYPGNVNTKYSEKFKGKATLTADKSSSTAYMQFSSLTSEDSAVYFCARGEAGYFDYWGQGTTLTVSS VL: DIVMTQSHKFMSTSVGDRVSITCKASQDVSTAVAWYQQKPGQSPRLLIYWASTRHTGVPDRFTGSGSGTDYTLTISSVQAEDQALYYCQQHYRTPWTFGGGTKLEIKR",binding result,[1],"no binding (tested: 200, 40 and 8 ng/mL)"
same,binding result,[2],"no binding (tested: 200, 40 and 8 ng/mL)"
same,binding result,[3],"no binding (tested: 200, 40 and 8 ng/mL)"
same,binding result,[4],"no binding (tested: 200, 40 and 8 ng/mL)"
